In patent US9212178B2, “Substituted pyrimidine compounds and their use as SYK inhibitors” (Genosco, priority 2013, dated 2015):

Legend:
full-length human SYK = full-length human SYK (Homo sapiens (Human), UniProt P43405); test: Inhibition of enzymatic SYK kinase activity (LANCE Ulight TK peptide); type: biochemical; conditions: ATP at Km (15 uM), 30 min pre-incubation
Protocol: Compounds of the present invention were assayed to measure their capacity to inhibit a spleen tyrosine kinase (SYK).
Compounds of the invention were initially diluted to 10 mM in 100% DMSO (CALBIOCHEM™) for storage and made into kinase buffer solution to create a compound concentration ranging from 1 uM and 10 uM. Serial dilutions of compounds of the invention were dispensed into a 96-well plate (GREINER BIOSCIENCES™) at 6 μL each. Purified full-length human SYK (CARNA BIOSCIENCES™) were diluted in kinase buffer and added to the compound solutions and pre-incubated for 30 minutes at room temperature. […] The reaction mixture was incubated for 1 hour. Following the incubation, the stop solution made with EDTA, water, and Lance detection buffer ([…]™) was added (12 μL each) to stop phosphorylation.

THP-1 cells = test: SYK-dependent TNF-α release assay (IgG stimulation), ELISA; type: cell-based; conditions: THP-1 cells on human IgG-coated plate, 18 hours; read-out: TNF-α release inhibition, IgG stimulation IC50
Protocol: In order to address cellular potency of Compounds of Formula (I), TNF-a production was measured on treatment of a series of concentration of SYK inhibitor in THP-1 cells.
For SYK-dependent TNF-α release assay (i.e., via IgG stimulation), THP-1 cells derived from human monocytic cells were obtained from the American Type Culture Collection (ATCC, Manassas, Va.). This cell line was maintained with a Roswell Park Memorial Institute (RPMI) medium (GIBCO) containing 10% fetal bovine serum (FBS; GIBCO) and 0.05 mM solution of 2-mercaptoethanol. The THP-1 cells were seeded at 1×10^5 cells/100 μL/well into human IgG (10 ng/well, INVITROGEN)-coated 96 well culture plate, and serially diluted compound was then added. After an 18 hours of incubation period at 37° C., supernatants were collected for the determination of the TNF-α level by enzyme-linked immunosorbent assay (ELISA), and the remaining cells were subjected to an MTT (yellow tetrazolium salt) assay to determine the cytotoxic effects of the compound. The IC50 value of the test compound was calculated at Gradpad Prism 5 unless otherwise specified.

| Compound | IC50 (full-length human SYK) [µM] | IC50 (THP-1 cells) [µM] |
| --- | --- | --- |
| Cc1nn(-c2ccnc(Nc3ccc4c(c3)c(C(=O)C(C)C)cn4C)n2)cc1CN1C[C@H](O)CO1 [Compound 2, (S)-1-(5-(4-(4-((4-hydroxyisoxazolidin-2-yl)methyl)-3-methyl-1H-pyrazol-1-yl)pyrimidin-2-ylamino)-1-methyl-1H-indol-3-yl)-2-methylpropan-1-one] | 0.00863 | 0.067 |
| Cc1nn(-c2ccnc(Nc3ccc4c(c3)c(C(=O)C(F)(F)F)cn4C)n2)cc1CN1C[C@H](O)CO1 [Compound 3, (S)-2,2,2-trifluoro-1-(5-(4-(4-((4-hydroxyisoxazolidin-2-yl)methyl)-3-methyl-1H-pyrazol-1-yl)pyrimidin-2-ylamino)-1-methyl-1H-indol-3-yl)ethanone] | 0.00282 | 0.048 |
| Cc1nn(-c2ccnc(Nc3ccc4c(c3)c(C(=O)C(F)F)cn4C)n2)cc1CN1C[C@H](O)CO1 [Compound 4, (S)-2,2-difluoro-1-(5-(4-(4-((4-hydroxyisoxazolidin-2-yl)methyl)-3-methyl-1H-pyrazol-1-yl)pyrimidin-2-ylamino)-1-methyl-1H-indol-3-yl)ethanone] | 0.00942 | 0.045 |
| CCOC(=O)n1cc(C(C)=O)c2cc(Nc3nccc(-n4cc(CN5C[C@H](O)CO5)c(C)n4)n3)ccc21 [Compound 5, (S)-ethyl 3-acetyl-5-(4-(4-((4-hydroxyisoxazolidin-2-yl)methyl)-3-methyl-1H-pyrazol-1-yl)pyrimidin-2-ylamino)-1H-indole-1-carboxylate] | – | 0.293 |
| Cc1nn(-c2ccnc(Nc3ccc4[nH]cc(C(=O)C(F)(F)F)c4c3)n2)cc1CN1C[C@H](O)CO1 [Compound 7, (S)-2,2,2-trifluoro-1-(5-(4-(4-((4-hydroxyisoxazolidin-2-yl)methyl)-3-methyl-1H-pyrazol-1-yl)pyrimidin-2-ylamino)-1H-indol-3-yl)ethanone] | 0.00828 | 0.06 |
| Cc1nn(-c2ccnc(Nc3ccc4c(c3)c(C(=O)C3CC3)cn4C(C)C)n2)cc1CN1C[C@H](O)CO1 [Compound 8, (S)-cyclopropyl(5-(4-(4-((4-hydroxyisoxazolidin-2-yl)methyl)-3-methyl-1H-pyrazol-1-yl)pyrimidin-2-ylamino)-1-isopropyl-1H-indol-3-yl)methanone] | 0.00737 | 0.097 |
| CC(=O)c1cn(C)c2ccc(Nc3nccc(-n4cc(CN5C[C@H](O)CO5)c(C)n4)n3)cc12 [Compound 9, (S)-1-(5-(4-(4-((4-hydroxyisoxazolidin-2-yl)methyl)-3-methyl-1H-pyrazol-1-yl)pyrimidin-2-ylamino)-1-methyl-1H-indol-3-yl)ethanone] | 0.0133 | 0.229 |
| Cc1nn(-c2ccnc(Nc3ccc4c(c3)c(C(=O)C(F)F)cn4C)n2)cc1CN1C[C@@H](O)CO1 [Compound 10, (R)-2,2-difluoro-1-(5-(4-(4-((4-hydroxyisoxazolidin-2-yl)methyl)-3-methyl-1H-pyrazol-1-yl)pyrimidin-2-ylamino)-1-methyl-1H-indol-3-yl)ethanone] | 0.0244 | – |
| CCn1cc(C(=O)C2CC2)c2cc(Nc3nccc(-n4cc(CN5C[C@@H](O)CO5)c(C)n4)n3)ccc21 [Compound 11, (R)-cyclopropyl(1-ethyl-5-(4-(4-((4-hydroxyisoxazolidin-2-yl)methyl)-3-methyl-1H-pyrazol-1-yl)pyrimidin-2-ylamino)-1H-indol-3-yl)methanone] | 0.00628 | 0.089 |
| Cc1nn(-c2ccnc(Nc3ccc4[nH]cc(C(=O)C5CC5)c4c3)n2)cc1CN1C[C@H](O)CO1 [Compound 12, (S)-cyclopropyl(5-(4-(4-((4-hydroxyisoxazolidin-2-yl)methyl)-3-methyl-1H-pyrazol-1-yl)pyrimidin-2-ylamino)-1H-indol-3-yl)methanone] | 0.0135 | 0.12 |
| CCn1cc(C(=O)C2CC2)c2cc(Nc3nccc(-n4cc(CN5CC(C)(O)CO5)c(C)n4)n3)ccc21 (stereo not drawn) [Compound 13, cyclopropyl(1-ethyl-5-(4-(4-((4-hydroxy-4-methylisoxazolidin-2-yl)methyl)-3-methyl-1H-pyrazol-1-yl)pyrimidin-2-ylamino)-1H-indol-3-yl)methanone] | 0.0173 | 0.273 |
| Cc1nn(-c2ccnc(Nc3ccc4c(c3)c(C(=O)C3CC3)cn4C)n2)cc1CN1CC(C)(O)CO1 (stereo not drawn) [Compound 14, cyclopropyl(5-(4-(4-((4-hydroxy-4-methylisoxazolidin-2-yl)methyl)-3-methyl-1H-pyrazol-1-yl)pyrimidin-2-ylamino)-1-methyl-1H-indol-3-yl)methanone] | 0.0417 | 0.789 |
| Cc1nn(-c2ccnc(Nc3ccc4c(c3)c(C(=O)C3CC3)cn4CC(F)(F)F)n2)cc1CN1C[C@H](O)CO1 [Compound 15, (S)-cyclopropyl(5-(4-(4-((4-hydroxyisoxazolidin-2-yl)methyl)-3-methyl-1H-pyrazol-1-yl)pyrimidin-2-ylamino)-1-(2,2,2-trifluoroethyl)-1H-indol-3-yl)methanone] | 0.00298 | 0.066 |
| Cc1nn(-c2ccnc(Nc3ccc4c(c3)c(C(=O)C3CC3)cn4CC(F)(F)F)n2)cc1CN1CC(C)(O)CO1 (stereo not drawn) [Compound 16, cyclopropyl(5-(4-(4-((4-hydroxy-4-methylisoxazolidin-2-yl)methyl)-3-methyl-1H-pyrazol-1-yl)pyrimidin-2-ylamino)-1-(2,2,2-trifluoroethyl)-1H-indol-3-yl)methanone] | 0.0142 | 0.226 |
| Cc1nn(-c2nc(Nc3ccc4c(c3)c(C(=O)C(F)(F)F)cn4C)ncc2Cl)cc1CN1C[C@H](O)CO1 [Compound 17, (S)-1-(5-(5-chloro-4-(4-((4-hydroxyisoxazolidin-2-yl)methyl)-3-methyl-1H-pyrazol-1-yl)pyrimidin-2-ylamino)-1-methyl-1H-indol-3-yl)-2,2,2-trifluoroethanone] | 0.132 | – |
| Cc1cnc(Nc2ccc3c(c2)c(C(=O)C(F)(F)F)cn3C)nc1-n1cc(CN2C[C@H](O)CO2)c(C)n1 [Compound 18, (S)-2,2,2-trifluoro-1-(5-(4-(4-((4-hydroxyisoxazolidin-2-yl)methyl)-3-methyl-1H-pyrazol-1-yl)-5-methylpyrimidin-2-ylamino)-1-methyl-1H-indol-3-yl)ethanone] | 0.159 | – |
| Cc1cnc(Nc2ccc3c(c2)c(C(=O)C2CC2)cn3C)nc1-n1cc(CN2C[C@H](O)CO2)c(C)n1 [Compound 19, (S)-cyclopropyl(5-(4-(4-((4-hydroxyisoxazolidin-2-yl)methyl)-3-methyl-1H-pyrazol-1-yl)-5-methylpyrimidin-2-ylamino)-1-methyl-1H-indol-3-yl)methanone] | 0.271 | 0.821 |
| CCn1cc(C(=O)C2CC2)c2cc(Nc3ncc(F)c(-n4cc(CN5C[C@H](O)CO5)c(C)n4)n3)ccc21 [Compound 20, (S)-cyclopropyl(1-ethyl-5-(5-fluoro-4-(4-((4-hydroxyisoxazolidin-2-yl)methyl)-3-methyl-1H-pyrazol-1-yl)pyrimidin-2-ylamino)-1H-indol-3-yl)methanone] | 0.0662 | – |
| CCn1cc(C(=O)C2CC2)c2cc(Nc3ncc(C)c(-n4cc(CN5C[C@H](O)CO5)c(C)n4)n3)ccc21 [Compound 22, (S)-cyclopropyl(1-ethyl-5-(4-(4-((4-hydroxyisoxazolidin-2-yl)methyl)-3-methyl-1H-pyrazol-1-yl)-5-methylpyrimidin-2-ylamino)-1H-indol-3-yl)methanone] | 0.0793 | – |
| Cc1nn(-c2ccnc(Nc3ccc4c(c3)c(C(=O)C3CC3)cn4CCF)n2)cc1CN1C[C@H](O)CO1 [Compound 23, (S)-cyclopropyl(1-(2-fluoroethyl)-5-(4-(4-((4-hydroxyisoxazolidin-2-yl)methyl)-3-methyl-1H-pyrazol-1-yl)pyrimidin-2-ylamino)-1H-indol-3-yl)methanone] | 0.00371 | 0.111 |
| CCn1cc(C(=O)C2CC2)c2cc(Nc3nccc(-n4cc(CN5C[C@H](O)CO5)c(C5CC5)n4)n3)ccc21 [Compound 25, (S)-cyclopropyl(5-(4-(3-cyclopropyl-4-((4-hydroxyisoxazolidin-2-yl)methyl)-1H-pyrazol-1-yl)pyrimidin-2-ylamino)-1-ethyl-1H-indol-3-yl)methanone] | 0.00585 | 0.465 |
| Cc1nn(-c2ccnc(Nc3ccc4c(c3)c(C(=O)C3CC3)cn4C)n2)cc1CN1CC(C)(O)CCO1 (stereo not drawn) [Compound 28] | 0.106 | – |
| Cc1nn(-c2ccnc(Nc3ccc4c(c3)c(Cl)c(C)n4C)n2)cc1CN1C[C@H](O)CO1 [Compound 31, (S)-2-((1-(2-(3-chloro-1,2-dimethyl-1H-indol-5-ylamino)pyrimidin-4-yl)-3-methyl-1H-pyrazol-4-yl)methyl)isoxazolidin-4-ol] | – | 0.197 |
| (S)-cyclopropyl(1-ethyl-5-(5-fluoro-4-(3-((4-hydroxyisoxazolidin-2-yl)methyl)-4-methyl-1H-pyrrol-1-yl)pyrimidin-2-ylamino)-1H-indol-3-yl)methanone [Compound 21] | 0.23 | – |
